Patent US12495798B2, “Nicotinamide compound and herbicidal composition comprising compound” (KOREA RESEARCH INSTITUTE OF CHEMICAL TECHNOLOGY, priority 2019, dated 2025)

What was measured:
Format in all cases: in vivo
[1] = tested on: quack grass; experiment: Herbicidal activity test against upland field weeds (soil treatment test); parameters: key to Soil treatment herbicidal activity, quack grass: 0 (no control); 100 (complete control); conditions: 50 g ai/ha, scale 0 (no control) to 100 (complete control)
How it was run: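 Pre-emergence test: seeds or rootstocks were sown in fertilized sandy loam, and the next day the soil surface was sprayed with compound at 50 or 75 g a.i./ha in 50% acetone/0.1% Tween-20. Plants were grown in a greenhouse (30±5 °C, 14/10 h light/dark), then visually scored 0–100 against untreated at 14 d (21 d if needed).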

[2] = tested on: corn; experiment: Phytotoxicity test for upland field crops (foliar treatment test); parameters: key: 0 (no harm); 9 (complete withered)
How it was run: (§1)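 Application rate ranged 19˜300 g a.i./ha, delivered as a foliar spray (100 ml/m^2) in 33% acetone with 0.1% Tween-20 to crops raised at 30±5 °C under 14/10 h light/dark. Symptoms were assessed 7 and 14 days post-treatment, extending to 21 days where necessary, using a 0–9 injury grade relative to untreated control.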

[3] = tested on: wheat; experiment: as above; parameters: key: 0 (no harm); 9 (complete withered)
How it was run: as §1

[4] = tested on: cotton; experiment: as above; parameters: key: 0 (no harm); 9 (complete withered)
How it was run: as §1

[5] = tested on: soybean; experiment: as above; parameters: key: 0 (no harm); 9 (complete withered)
How it was run: as §1

[6] = tested on: rice; experiment: as above; parameters: key: 0 (no harm); 9 (complete withered)
How it was run: as §1

[7] = tested on: corn; experiment: Phytotoxicity test for field crops (soil treatment test); parameters: key: 0 (no harm); 9 (complete withered)
How it was run: (§2)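 Visual phytotoxicity grading (0 no harm to 9 complete withering, relative to untreated control) 10 and 20 days after a pre-emergence soil spray applied one day post-sowing. Rates 19˜300 g a.i./ha in 33% acetone/0.1% Tween-20; sterilized soil pH 6.1, fertilized; greenhouse 30±5° C, 14/10 h photoperiod.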

[8] = tested on: wheat; experiment: as above; parameters: key: 0 (no harm); 9 (complete withered)
How it was run: as §2

[9] = tested on: cotton; experiment: as above; parameters: key: 0 (no harm); 9 (complete withered)
How it was run: as §2

[10] = tested on: soybean; experiment: as above; parameters: key: 0 (no harm); 9 (complete withered)
How it was run: as §2

[11] = tested on: rice; experiment: as above; parameters: key: 0 (no harm); 9 (complete withered)
How it was run: as §2

[12] = 50 g ai/ha, Corn (7 days after treatment)
[13] = 50 g ai/ha, Corn (14 days after treatment)
[14] = 100 g ai/ha, Corn (7 days after treatment)
[15] = 100 g ai/ha, Corn (14 days after treatment)
[16] = 50 g ai/ha, Wheat (7 days after treatment)
[17] = 50 g ai/ha, Wheat (14 days after treatment)
[18] = 100 g ai/ha, Wheat (7 days after treatment)
[19] = 100 g ai/ha, Wheat (14 days after treatment)
[20] = 50 g ai/ha, Cotton (7 days after treatment)
[21] = 50 g ai/ha, Cotton (14 days after treatment)
[22] = 100 g ai/ha, Cotton (7 days after treatment)
[23] = 100 g ai/ha, Cotton (14 days after treatment)
[24] = 50 g ai/ha, Soybean (7 days after treatment)
[25] = 50 g ai/ha, Soybean (14 days after treatment)
[26] = 100 g ai/ha, Soybean (7 days after treatment)
[27] = 100 g ai/ha, Soybean (14 days after treatment)
[28] = 50 g ai/ha, Rice (7 days after treatment)
[29] = 50 g ai/ha, Rice (14 days after treatment)
[30] = 100 g ai/ha, Rice (7 days after treatment)
[31] = 100 g ai/ha, Rice (14 days after treatment)
[32] = 50 g ai/ha, Corn (10 days after treatment)
[33] = 50 g ai/ha, Corn (20 days after treatment)
[34] = 100 g ai/ha, Corn (10 days after treatment)
[35] = 100 g ai/ha, Corn (20 days after treatment)
[36] = 50 g ai/ha, Wheat (10 days after treatment)
[37] = 50 g ai/ha, Wheat (20 days after treatment)
[38] = 100 g ai/ha, Wheat (10 days after treatment)
[39] = 100 g ai/ha, Wheat (20 days after treatment)
[40] = 50 g ai/ha, Cotton (10 days after treatment)
[41] = 50 g ai/ha, Cotton (20 days after treatment)
[42] = 100 g ai/ha, Cotton (10 days after treatment)
[43] = 100 g ai/ha, Cotton (20 days after treatment)
[44] = 50 g ai/ha, Rice (10 days after treatment)
[45] = 50 g ai/ha, Rice (20 days after treatment)
[46] = 100 g ai/ha, Rice (10 days after treatment)
[47] = 100 g ai/ha, Rice (20 days after treatment)

Compound	Soil treatment herbicidal activity, quack grass [1]	Foliar treatment phytotoxicity, Corn [2, 12]	Foliar treatment phytotoxicity, Corn [2, 13]	Foliar treatment phytotoxicity, Corn [2, 14]	Foliar treatment phytotoxicity, Corn [2, 15]	Foliar treatment phytotoxicity, Wheat [3, 16]	Foliar treatment phytotoxicity, Wheat [3, 17]	Foliar treatment phytotoxicity, Wheat [3, 18]	Foliar treatment phytotoxicity, Wheat [3, 19]	Foliar treatment phytotoxicity, Cotton [4, 20]	Foliar treatment phytotoxicity, Cotton [4, 21]	Foliar treatment phytotoxicity, Cotton [4, 22]	Foliar treatment phytotoxicity, Cotton [4, 23]	Foliar treatment phytotoxicity, Soybean [5, 24]	Foliar treatment phytotoxicity, Soybean [5, 25]	Foliar treatment phytotoxicity, Soybean [5, 26]	Foliar treatment phytotoxicity, Soybean [5, 27]	Foliar treatment phytotoxicity, Rice [6, 28]	Foliar treatment phytotoxicity, Rice [6, 29]	Foliar treatment phytotoxicity, Rice [6, 30]	also measured
CCOC(=O)OC(C)N(C(=O)c1ccc(C(F)(F)F)nc1COCc1nnn(C)n1)c1nnnn1C (stereo not shown) [Compound No. 4-8, ethyl(1-(N-(1-methyl-1H-tetrazol-5-yl)-2-(((2-methyl-2H-tetrazol-5-yl)methoxy)methyl)-6-(trifluoromethyl)nicotinamido)ethyl)carbonate]	0	0	0	0	0	2	1	2	2	0	0	0	0	0	0	0	0	0	0	0	Foliar treatment phytotoxicity, Rice [6, 31]: 0
Cn1nnc(CSCc2nc(C(F)(F)F)ccc2C(=O)Nc2nnnn2C)n1 [Compound No. 2-102, N-(1-methyl-1H-tetrazol-5-yl)-2-((((2-methyl-2H-tetrazol-5-yl)methyl)thio)methyl)-6-(trifluoromethyl)nicotinamide]	0	0	0	0	0	0	0	0	1	0	0	0	0	0	0	0	0	3	3	4	Foliar treatment phytotoxicity, Rice [6, 31]: 4
Cn1nnnc1COc1nc(C(F)(F)F)ccc1C(=S)Nc1nnnn1C [Compound No. 1-43, N-(1-methyl-1H-tetrazol-5-yl)-2-((1-methyl-1H-tetrazol-5-yl)methoxy)-6-(trifluoromethyl)pyridin-3-carbothioamide]	0	–	–	–	–	–	–	–	–	–	–	–	–	–	–	–	–	–	–	–	Soil treatment phytotoxicity, Corn [7, 32]: 0; Soil treatment phytotoxicity, Corn [7, 33]: 0; Soil treatment phytotoxicity, Corn [7, 34]: 1; Soil treatment phytotoxicity, Corn [7, 35]: 0; Soil treatment phytotoxicity, Wheat [8, 36]: 0; Soil treatment phytotoxicity, Wheat [8, 37]: 0; Soil treatment phytotoxicity, Wheat [8, 38]: 3; Soil treatment phytotoxicity, Wheat [8, 39]: 3; Soil treatment phytotoxicity, Cotton [9, 40]: 0; Soil treatment phytotoxicity, Cotton [9, 41]: 1; Soil treatment phytotoxicity, Cotton [9, 42]: 1; Soil treatment phytotoxicity, Cotton [9, 43]: 2; Soil treatment phytotoxicity, Soybean ([10]; 50 g ai/ha, Soybean (10 days after treatment)): 0; Soil treatment phytotoxicity, Soybean ([10]; 50 g ai/ha, Soybean (20 days after treatment)): 0; Soil treatment phytotoxicity, Soybean ([10]; 100 g ai/ha, Soybean (10 days after treatment)): 0; Soil treatment phytotoxicity, Soybean ([10]; 100 g ai/ha, Soybean (20 days after treatment)): 0; Soil treatment phytotoxicity, Rice [11, 44]: 5; Soil treatment phytotoxicity, Rice [11, 45]: 5; Soil treatment phytotoxicity, Rice [11, 46]: 7; Soil treatment phytotoxicity, Rice [11, 47]: 9
COC(=O)OC(C)N(C(=O)c1ccc(C(F)(F)F)nc1COCc1nnn(C)n1)c1nnnn1C (stereo not shown) [Compound No. 4-4, methyl(1-(N-(1-methyl-1H-tetrazol-5-yl)-2-(((2-methyl-2H-tetrazol-5-yl)methoxy)methyl)-6-(trifluoromethyl)nicotinamido)ethyl)carbonate]	0	0	0	0	0	1	0	2	2	0	0	0	0	0	0	0	0	4	4	4	Foliar treatment phytotoxicity, Rice [6, 31]: 4
Cn1nnc(COc2nc(C(F)(F)F)ccc2C(=O)Nc2nnnn2C)n1 [Compound No. 2-1, N-(1-methyl-1H-tetrazol-5-yl)-2-((2-methyl-2H-tetrazol-5-yl)methoxy)-6-(trifluoromethyl)nicotinamide]	0	2	1	2	2	0	0	0	0	6	8	6	9	5	6	6	6	4	3	5	Foliar treatment phytotoxicity, Rice [6, 31]: 4; Soil treatment phytotoxicity, Corn [7, 32]: 0; Soil treatment phytotoxicity, Corn [7, 33]: 0; Soil treatment phytotoxicity, Corn [7, 34]: 0; Soil treatment phytotoxicity, Corn [7, 35]: 0; Soil treatment phytotoxicity, Wheat [8, 36]: 0; Soil treatment phytotoxicity, Wheat [8, 37]: 0; Soil treatment phytotoxicity, Wheat [8, 38]: 0; Soil treatment phytotoxicity, Wheat [8, 39]: 0; Soil treatment phytotoxicity, Cotton [9, 40]: 1; Soil treatment phytotoxicity, Cotton [9, 41]: 2; Soil treatment phytotoxicity, Cotton [9, 42]: 4; Soil treatment phytotoxicity, Cotton [9, 43]: 7; Soil treatment phytotoxicity, Rice [11, 44]: 3; Soil treatment phytotoxicity, Rice [11, 45]: 3; Soil treatment phytotoxicity, Rice [11, 46]: 5; Soil treatment phytotoxicity, Rice [11, 47]: 5
